{"source": "paper PMC3620387", "about": "“Targeting the EGFR/PCNA Signaling Suppresses Tumor Growth of Triple-Negative Breast Cancer Cells with Cell-Penetrating PCNA Peptides” (PLoS ONE, 2013)", "key": {"[1]": {"tested_on": "MDA-MB 468 cells", "test": "WST-1 cell viability assay", "assay_type": "cell-based, human", "conditions": "24 h", "description": "(§1) Cell viability was determined by WST-1 (4-[3-(4-Iodophenyl)-2-(4-nitrophenyl) -2H-5-tetrazolio]-1,3-benzene disulfonate) assay (Roche). Cells were incubated with or without TKI or CPPP. After culturing for another 24 h, one-tenth volume of WST-1 was added at 4 h before harvest, and the absorbance was detected at 450 nm. Cell viability was normalized by the absorbance from the cells without treatment."}, "[2]": {"tested_on": "MDA-MB 468 cells", "test": "Apoptosis assay, Annexin V staining, flow cytometry", "assay_type": "cell-based, human", "conditions": "24 h", "description": "(§2) For apoptosis assay using annexin V staining, cells treated with the CPPP for 24 h and the cells were harvested and resuspended in the binding buffer and then incubated with FITC-conjugated Annexin V and propidium iodide (PI), according to the manufacturer's protocol (BD Biosciences). The percentage of apoptotic cells were assessed by flow cytometry."}, "[3]": {"tested_on": "MDA-MB 468 cells", "test": "Subcutaneous MDA-MB 468 xenograft", "assay_type": "in vivo, nude mice", "conditions": "200 nmol/mouse, intratumoral injection; for tumor volume compared with control or scrambled peptides / tumor mass compared with control or scrambled peptide group: nude mice; for tumor volume compared with control or scrambled peptides: Fig. 5A, S1A; for tumor mass compared with control or scrambled peptide group: end of experiment, Fig. 5B, S1B", "description": "(§3) For subcutaneous implantation, MDA-MB 468 cells (1×10^7 in 100 µL of sterile Dulbecco's phosphate-buffered saline; PBS) were inoculated into nude mice by subcutaneous injection into the flanks. Each group contained 4 mice that were inoculated with tumor cells on both flanks (n = 8). When the tumors were palpable, mice were grouped randomly into 3–4 groups with 4 mice in each group. The mice were then treated with control vehicle, control scrambled peptide, Y211F CPPP, RF6 CPPP, or D-RF6 CPPP, by intratumoral injection. For orthotopic implantation, tumor xenografts were established by injection of Iressa-resistant MDA-MB 468 (IR) cells (1×10^7 resuspended in a 1∶1 mixture of PBS and Matrigel (BD Biosciences) in a total volume of 100 µL) into the mammary fat pad on either side of each 6–8-week old female severe combined immunodeficient (SCID) mice, respectively. When the tumors were palpable, the mice bearing IR tumor xenografts were treated with control vehicle, control scrambled peptide, D-RF6 CPPP (200 nmol/mouse) by intraperitoneal injection. Tumor growth was monitored 3 times/week for five weeks by measuring tumor perpendicular diameters. Tumor volume (V) was calculated using the following formula: V = length×diameter^2×0.5.\n(§4) Figure 5 The effect of CPPP on tumor growth in vivo. (A) Approximately 1×10^7 MDA-MB 468 cells were subcutaneously injected into the flanks of nude mice. When the tumors were palpable, mice were randomly divided into 4 groups and treated with PBS (Control), scrambled peptide for RF6 (Scramble), RF6 CPPP, or D-RF6 CPPP (200 nmol/mouse) by intratumoral injection. Tumor volume was measured the tumor volume at the indicated time point. (B) The weight of each of the harvested tumors from (A) was measured after treatment. (C) Approximately 1×10^7 Iressa-resistant MDA-MB 468 (MDA-MB 468/IR) cells were injected into the mammary fat pad on either side of SCID mice. When the tumors were palpable, mice were randomly divided into 3 groups and treated with PBS (Control), scrambled peptide for D-RF6 (Scramble), or D-RF6 CPPP (200 nmol/mouse) by intratumoral injection. Tumor volume was measured the tumor volume at the indicated time point. (D) The weight of each of the harvested tumors from (C) was measured after treatment. The curves and bars indicate mean ± S.D.; *, p<0.05; **, p<0.01; ***, p<0.001 by t-test. (E) Extracted tumor tissue lysates from (D), the protein levels of EGFR, p-Y211, PCNA and cleaved-caspase-3 were determined by IB.\nSupplementary file pone.0061362.s001.tif: Figure S1 The effect of Y211F CPPP on tumor growth in vivo. (A) Approximately 1×10^7 MDA-MB 468 cells were subcutaneously injected into the flanks of nude mice. When the tumors were palpable, mice were randomly divided into 3 groups and treated with PBS (Control), scrambled peptide for Y211 (Scramble), or Y211F CPPP (200 nmol/mouse) by intratumoral injection. Tumor volume was measured the tumor volume at the indicated time point. (B) The weight of each of the harvested tumors was measured after treatment. The curves and bars indicate mean ± S.D.; *, p<0.05; **, p<0.01; ***, p<0.001 by t-test. (TIF) Click here for additional data file."}, "[4]": {"tested_on": "MDA-MB 231 cells", "test": "WST-1 cell viability assay", "assay_type": "cell-based, human", "conditions": "24 h", "description": "as §1"}, "[5]": {"tested_on": "MDA-MB 231 cells", "test": "Apoptosis assay, Annexin V staining, flow cytometry", "assay_type": "cell-based, human", "conditions": "15 µM, 24 h", "description": "as §2"}, "[6]": {"tested_on": "Iressa-resistant MDA-MB 468 (MDA-MB 468/IR) cells", "test": "Orthotopic Iressa-resistant MDA-MB 468 xenograft (mammary fat pad)", "assay_type": "in vivo, SCID mice", "description": "as §3, §4"}, "[7]": {"tested_on": "MCF10A", "test": "WST-1 cell viability assay", "assay_type": "cell-based", "conditions": "up to 50 µM, 24 h, WST-1, Fig. 1B", "description": "as §1"}, "[8]": {"tested_on": "MDA-MB 468 cells", "conditions": "30 µM FITC-labeled peptide, 12 h, anti-EGFR staining, confocal microscopy, Fig. 2A", "quoted_text": "Confocal microscopy was performed as previously described [29].\n(A) MDA-MB 468 cells were treated with 30 µM FITC-labeled scrambled (FITC-Scrambled; top) or Y211F CPPP (FITC-Y211F; bottom) for 12 h. Subsequently, cells were fixed, permeabilized, and stained with anti-EGFR antibody or DAPI. The fluorescent images were observed under a confocal microscopy. The FITC-labeled peptide (green), EGFR (red), and nucleus (blue) are shown."}, "[9]": {"target": "T1, nEGFR/PCNA (Homo sapiens, UniProt P00533)", "T1 construct": "endogenous in cells; host or cells: MDA-MB 468 human TNBC cells (chromatin lysates)", "test": "Immunoprecipitation/immunoblot of chromatin lysates: nEGFR binding to PCNA", "assay_type": "cell-based", "conditions": "30 µM, 24 h, IP anti-PCNA, IB, Fig. 2B", "description": "Cell extraction, immunoprecipitation and Western blotting were performed as described previously, [29].\nThe fluorescent images were observed under a confocal microscopy."}, "[10]": {"tested_on": "Iressa-resistant MDA-MB 468 (IR)", "test": "WST-1 cell viability assay", "assay_type": "cell-based, human", "conditions": "15 µM, 24 h, Fig. 3E", "description": "(§5) Human triple-negative breast cancer (TNBC) cell lines (MDA-MB 468, and MDA-MB 231) were purchased from American Type Culture Collection. All cells were maintained in DMEM/F12 (1∶1) with 10% FBS. EGFR TKI-resistant TNBC cell lines: Iressa-resistant MDA-MB 468 (IR) and Tarceva-resistant MDA-MB 468 (TR) were established by treatment with gradually increasing concentrations of these drugs for over one month. These TKI-resistant clones were cultured in the presence of 1 µM TKIs. The following peptides were synthesized by MDBio, Inc: Y211F CPPP (Y211F; […]); AK10 CPPP (AK10; […]); TF10 CPPP (TF10; […]); TN8 CPPP (TN8; […]); RK8 CPPP (RK8; […]); RF6 CPPP (RF6; […]); D-RF6 CPPP (D-RF6; […]); Scrambled peptides for Y211F (Scramble; […]); Scrambled peptides for RF6 (Scramble; […]). […]\nas §1, with “Cells were incubated with or without TKI or CPPP.” left out\n(§6) Figure 3 The cytotoxic effect of CPPP in TKI-resistant TNBC cells. […] (E–F) The P-, IR-, or TR-TNBC cells were treated with 15 µM Y211F CPPP for 24 h and the relative cell viability (E) and Annexin V-positive cells (F) were determined. […]"}, "[11]": {"tested_on": "Tarceva-resistant MDA-MB 468 (TR)", "test": "WST-1 cell viability assay", "assay_type": "cell-based, human", "conditions": "15 µM, 24 h, Fig. 3E", "description": "as §5\nas §1, with “Cells were incubated with or without TKI or CPPP.” left out\nas §6"}, "[12]": {"tested_on": "Iressa-resistant MDA-MB 468 (IR)", "test": "Apoptosis assay, Annexin V staining", "assay_type": "cell-based, human", "conditions": "15 µM, 24 h, Fig. 3F", "description": "as §5, §2, §6"}, "[13]": {"tested_on": "Tarceva-resistant MDA-MB 468 (TR)", "test": "Apoptosis assay, Annexin V staining", "assay_type": "cell-based, human", "conditions": "15 µM, 24 h, Fig. 3F", "description": "as §5, §2, §6"}, "[14]": {"conditions": "extracted tumor tissue lysates, IB, Fig. 5E"}, "[15]": {"conditions": "15 µM Y211F CPPP combined with 1∼8 µM EGFR TKI (Tarceva or Iressa), Fig. 2C-2F"}, "[16]": {"conditions": "indicated concentrations, WST-1, Fig. 1B"}}, "data": [{"sequence": "YGRKKRRQRRRGRFLNFF [RF6 CPPP]", "values": [{"measurement": "relative cell viability", "setting": "[1]; 50 µM of each CPPP derivative, Fig. 4B", "value": "minimal effective peptide"}, {"measurement": "apoptosis (Annexin V-positive cells)", "setting": "[2]; 50 µM of each CPPP derivative, Fig. 4C", "value": "minimal effective peptide"}, {"measurement": "tumor volume compared with control or scrambled peptides", "setting": "[3]", "value": "significantly reduced tumor volume"}, {"measurement": "tumor mass compared with control or scrambled peptide group", "setting": "[3]", "value": "significantly smaller tumor mass"}]}, {"sequence": "YGRKKRRQRRRGRFLNFF [D-RF6 CPPP, synthetic retro-inverted D form derivative of RF6 CPPP]", "values": [{"measurement": "growth suppression (relative cell viability) compared with RF6 CPPP", "setting": "[1]; indicated concentrations, Fig. 4E", "value": "enhanced the growth suppression"}, {"measurement": "growth suppression (relative cell viability) compared with RF6 CPPP", "setting": "[4]; indicated concentrations, Fig. 4F", "value": "enhanced the growth suppression"}, {"measurement": "apoptosis activity (Annexin V-positive cells)", "setting": "[2]; 15 µM, flow cytometry, Fig. 4G", "value": "enhanced the growth suppression and apoptosis activity"}, {"measurement": "apoptosis activity (Annexin V-positive cells)", "setting": "[5]; Fig. 4G", "value": "enhanced the growth suppression and apoptosis activity"}, {"measurement": "activity in suppressing tumor growth and reducing tumor volume, on an equimolar basis", "setting": "[3]; compared with Y211F CPPP", "value": "more potent than Y211F CPPP"}, {"measurement": "tumor mass compared with control or scrambled peptides", "setting": "[6]; 200 nmol/mouse, SCID mice, harvested tumors, Fig. 5D", "value": "significantly reduced tumor volume and mass"}, {"measurement": "tumor volume compared with control or scrambled peptides", "setting": "[6]; 200 nmol/mouse, SCID mice, intratumoral (Fig. 5C legend) or intraperitoneal (methods) injection", "value": "significantly reduced tumor volume and mass"}, {"measurement": "PCNA Y211 phosphorylation in tumor tissue", "setting": "[6]; [14]", "value": "inhibited"}, {"measurement": "cleaved caspase-3 in tumor tissue", "setting": "[6]; [14]", "value": "cleaved caspase-3 increased"}]}, {"sequence": "YGRKKRRQRRRGTFALRFLNFFTK [Y211F CPPP, TAT-based cell-penetrating PCNA peptide, 12 amino acids flanking Y211 with tyrosine replaced by phenylalanine]", "values": [{"measurement": "relative cell viability", "setting": "[7]", "value": "no effect"}, {"measurement": "relative cell viability, combination with EGFR TKI", "setting": "[1]; [15]", "value": "enhanced the effect of both TKIs"}, {"measurement": "cancer cells killed", "setting": "[1]; 50 µM, WST-1, Fig. 1B", "value": "more than 80%"}, {"measurement": "relative cell viability", "setting": "[1]; [16]", "value": "suppressed cell viability"}, {"measurement": "relative cell viability, combination with EGFR TKI", "setting": "[4]; [15]", "value": "enhanced the effect of both TKIs"}, {"measurement": "cancer cells killed", "setting": "[4]; 50 µM, WST-1, Fig. 1B", "value": "more than 80%"}, {"measurement": "relative cell viability", "setting": "[4]; [16]", "value": "suppressed cell viability"}, {"measurement": "apoptotic response (Annexin V-positive cells)", "setting": "[2]; 15 µM, flow cytometry, Fig. 1C", "value": "observed only in MDA-MB 468 and MDA-MB 231 cells"}, {"measurement": "apoptotic response (Annexin V-positive cells)", "setting": "[5]; Fig. 1C", "value": "observed only in MDA-MB 468 and MDA-MB 231 cells"}, {"measurement": "tumor volume compared with control or scrambled peptides", "setting": "[3]", "value": "significantly reduced tumor volume"}, {"measurement": "tumor mass compared with control or scrambled peptide group", "setting": "[3]", "value": "significantly smaller tumor mass"}, {"measurement": "targeting of EGFR", "setting": "[8]", "value": "specifically targeted EGFR"}, {"measurement": "nEGFR binding to PCNA on chromatin", "setting": "[9]", "value": "prevented nEGFR from binding PCNA"}, {"measurement": "relative cell viability compared with parental cells", "setting": "[10]", "value": "more sensitive"}, {"measurement": "relative cell viability compared with parental cells", "setting": "[11]", "value": "more sensitive"}, {"measurement": "Annexin V-positive cells compared with parental cells", "setting": "[12]", "value": "more sensitive"}, {"measurement": "Annexin V-positive cells compared with parental cells", "setting": "[13]", "value": "more sensitive"}]}]}
